Test results reported in ChEMBL document CHEMBL1130441, “Studies on -lactam antibiotics. Synthesis and antibacterial activity of novel 1-methylcarbapenems related to FR21818: 5-membered ring analogs” (1997).
Converted amounts (≈) assume the structure as drawn.

Columns and labels:
Proteus vulgaris = test: In vitro antibacterial activity of compound was measured on Proteus vulgaris IAM 1025; format: functional
Pseudomonas aeruginosa [1] = test: In vitro antibacterial activity of compound was measured on Pseudomonas aeruginosa 26; format: functional
[2] = target: Dipeptidase 1 (Homo sapiens) (UniProt P16444); test: In vitro rate of hydrolysis by human dehydropeptidase-1 compared to meropenem.
Staphylococcus aureus [3] = test: In vitro antibacterial activity of compound was measured on Staphylococcus aureus 209P JC-1; format: functional
Escherichia coli = test: In vitro antibacterial activity of compound was measured on Escherichia coli NIHJ JC-2; format: functional
Pseudomonas aeruginosa [4] = test: In vitro antibacterial activity of compound was measured on Pseudomonas aeruginosa IAM 1095; format: functional
Staphylococcus aureus [5] = test: In vitro antibacterial activity of compound was measured on Staphylococcus aureus 3004(MRSA); format: functional
Mus musculus [6] = test: Protective activity of compound against lethal systemic infection by Staphylococcus aureus 8008 (MRSA) in ICR mice at 1 hr after sc administration; format: functional
Mus musculus [7] = test: Protective activity of compound against lethal systemic infection by Staphylococcus aureus 8008 (MRSA) in ICR mice at 1 hr after subcutaneous administration; format: functional; details: sc
Mus musculus [8] = test: Protective activity of compound was measured against lethal systemic infection by Staphylococcus aureus 8008 (MRSA) in ICR mice at 1 hr after subcutaneous administration; format: functional; details: sc

Dipeptidase 1 (Homo sapiens), sequence (P16444 whole entry, looked up): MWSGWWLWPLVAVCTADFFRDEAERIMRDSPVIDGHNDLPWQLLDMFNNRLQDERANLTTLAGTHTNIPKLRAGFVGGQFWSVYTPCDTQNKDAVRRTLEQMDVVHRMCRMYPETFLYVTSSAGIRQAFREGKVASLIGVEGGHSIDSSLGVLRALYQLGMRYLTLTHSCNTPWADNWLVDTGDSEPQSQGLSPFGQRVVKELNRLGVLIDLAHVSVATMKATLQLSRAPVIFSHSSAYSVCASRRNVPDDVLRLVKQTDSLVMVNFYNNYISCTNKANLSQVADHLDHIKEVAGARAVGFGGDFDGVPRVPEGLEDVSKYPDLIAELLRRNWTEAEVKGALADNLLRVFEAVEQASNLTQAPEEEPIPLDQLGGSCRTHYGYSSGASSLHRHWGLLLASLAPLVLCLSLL

SMILES	MIC (Proteus vulgaris)	MIC (Pseudomonas aeruginosa [1])	DHP-I stability [2]	MIC (Staphylococcus aureus [3])	MIC (Escherichia coli)	MIC (Pseudomonas aeruginosa [4])	MIC (Staphylococcus aureus [5])	ED50 (Mus musculus [6])	ED50 (Mus musculus [7])	ED50 (Mus musculus [8])
C[C@@H](O)[C@H]1C(=O)N2C(C(=O)O)=C(S[C@@H]3CN[C@H](Cc4n(C)cc[n+]4C)C3)[C@H](C)[C@H]12.[Cl-]	0.78 µg/mL	0.39 µg/mL	0.3	0.1 µg/mL	0.1 µg/mL	12.5 µg/mL	6.25 µg/mL			
C[C@@H](O)[C@H]1C(=O)N2C(C(=O)O)=C(S[C@@H]3CN[C@H](C(=O)N(C)C)C3)[C@H](C)[C@H]12 [MEROPENEM]	0.1 µg/mL (≈ 0.261 µM)	0.2 µg/mL (≈ 0.522 µM)	1	0.1 µg/mL (≈ 0.261 µM)	0.025 µg/mL (≈ 0.0652 µM)	1.56 µg/mL (≈ 4.07 µM)	25 µg/mL (≈ 65.2 µM)	7.88 mg/kg		
C[C@@H](O)[C@H]1C(=O)N2C(C(=O)O)=C(S[C@@H]3CN[C@H](Cc4cn5[n+](c4)CCC5)C3)[C@H](C)[C@H]12.[Cl-]			0.21		0.1 µg/mL	3.13 µg/mL				
C[C@@H](O)[C@H]1C(=O)N2C(C(=O)O)=C(S[C@@H]3CN[C@H](Cc4c(CO)c[n+](C)n4C)C3)[C@H](C)[C@H]12.[Cl-]	0.78 µg/mL	0.39 µg/mL	0.28	0.1 µg/mL	0.2 µg/mL	3.13 µg/mL	25 µg/mL			
C[C@@H](O)[C@H]1C(=O)N2C(C(=O)O)=C(SCCNC=N)C[C@H]12 [IMIPENEM ANHYDROUS]									7.02 mg/kg	
C[C@@H](O)[C@H]1C(=O)N2C(C(=O)O)=C(S[C@@H]3CN[C@H](Cc4cc[n+](CC(N)=O)n4C)C3)[C@H](C)[C@H]12.[Cl-]	0.39 µg/mL	0.1 µg/mL	0.35	< 0.025 µg/mL	0.1 µg/mL	3.13 µg/mL	6.25 µg/mL			
CC1(C)C[C@@H]1C(=O)N/C(=C\CCCCSC[C@H](N)C(=O)O)C(=O)O [CILASTATIN]								7.88 mg/kg		
C[C@@H](O)[C@H]1C(=O)N2C(C(=O)[O-])=C(SC3Cn4cnc[n+]4C3)[C@H](C)[C@H]12 (stereo not given in full) [BIAPENEM]	3.13 µg/mL (≈ 8.93 µM)	0.2 µg/mL (≈ 0.571 µM)	0.15	0.05 µg/mL (≈ 0.143 µM)	0.39 µg/mL (≈ 1.11 µM)	1.56 µg/mL (≈ 4.45 µM)	25 µg/mL (≈ 71.3 µM)	35.2 mg/kg		
C[C@@H](O)[C@H]1C(=O)N2C(C(=O)O)=C(S[C@@H]3CN[C@H](Cc4cc[n+](CCO)n4C)C3)[C@H](C)[C@H]12.[Cl-]	1.56 µg/mL	0.2 µg/mL	0.26	0.05 µg/mL	0.2 µg/mL	6.25 µg/mL	6.25 µg/mL			5.45 mg/kg
CN[C@H](CC(C)C)C(=O)N[C@H]1C(=O)N[C@@H](CC(N)=O)C(=O)N[C@H]2C(=O)N[C@H]3C(=O)N[C@H](C(=O)N[C@H](C(=O)O)c4cc(O)cc(O)c4-c4cc3ccc4O)[C@H](O)c3ccc(c(Cl)c3)Oc3cc2cc(c3O[C@@H]2O[C@H](CO)[C@@H](O)[C@H](O)[C@H]2O[C@H]2C[C@](C)(N)[C@H](O)[C@H](C)O2)Oc2ccc(cc2Cl)[C@H]1O [VANCOMYCIN]										2.73 mg/kg
C[C@@H](O)[C@H]1C(=O)N2C(C(=O)O)=C(S[C@@H]3CN[C@H](Cc4cc[n+](C)n4C)C3)[C@H](C)[C@H]12.[Cl-]	0.78 µg/mL	0.2 µg/mL	0.42	0.05 µg/mL	0.2 µg/mL	1.56 µg/mL	6.25 µg/mL			

Continued by falling MIC (Escherichia coli), values first:

MIC (Proteus vulgaris)	MIC (Pseudomonas aeruginosa [1])	DHP-I stability [2]	MIC (Staphylococcus aureus [3])	MIC (Escherichia coli)	MIC (Pseudomonas aeruginosa [4])	MIC (Staphylococcus aureus [5])	SMILES	ED50 (Mus musculus [6])	ED50 (Mus musculus [7])	ED50 (Mus musculus [8])
1.56 µg/mL	0.39 µg/mL	0.2	0.05 µg/mL	0.39 µg/mL	1.56 µg/mL	12.5 µg/mL	C[C@@H](O)[C@H]1C(=O)N2C(C(=O)O)=C(S[C@@H]3CN[C@H](Cc4cn(C)[n+](CCO)c4)C3)[C@H](C)[C@H]12.[Cl-]			
1.56 µg/mL	0.39 µg/mL	0.24	0.05 µg/mL	0.39 µg/mL	6.25 µg/mL	6.25 µg/mL	C[C@@H](O)[C@H]1C(=O)N2C(C(=O)O)=C(S[C@@H]3CN[C@H](Cc4cn(C)[n+](C)c4CO)C3)[C@H](C)[C@H]12.[Cl-]			
0.78 µg/mL	0.2 µg/mL	0.27	0.05 µg/mL	0.2 µg/mL	1.56 µg/mL	6.25 µg/mL	C[C@@H](O)[C@H]1C(=O)N2C(C(=O)O)=C(S[C@@H]3CN[C@H](Cc4c[n+](C)c(CO)n4C)C3)[C@H](C)[C@H]12.[Cl-]			
1.56 µg/mL	0.39 µg/mL	0.28	0.05 µg/mL	0.2 µg/mL	3.13 µg/mL	3.13 µg/mL	C[C@@H](O)[C@H]1C(=O)N2C(C(=O)O)=C(S[C@@H]3CN[C@H](Cc4cn(C)[n+](C)c4)C3)[C@H](C)[C@H]12.[Cl-]			
0.78 µg/mL	0.2 µg/mL	0.41	0.05 µg/mL	0.2 µg/mL	3.13 µg/mL	6.25 µg/mL	C[C@@H](O)[C@H]1C(=O)N2C(C(=O)O)=C(S[C@@H]3CN[C@H](Cc4c[n+](C)cn4C)C3)[C@H](C)[C@H]12.[Cl-]			
0.78 µg/mL	1.56 µg/mL	0.22	0.1 µg/mL	0.2 µg/mL	12.5 µg/mL	12.5 µg/mL	C[C@@H](O)[C@H]1C(=O)N2C(C(=O)O)=C(S[C@@H]3CN[C@H](Cc4n(C)nc[n+]4C)C3)[C@H](C)[C@H]12.[Cl-]			
0.78 µg/mL	0.2 µg/mL	0.29	< 0.025 µg/mL	0.2 µg/mL	3.13 µg/mL	6.25 µg/mL	C[C@@H](O)[C@H]1C(=O)N2C(C(=O)O)=C(S[C@@H]3CN[C@H](Cc4cn(C)[n+](CC(N)=O)c4)C3)[C@H](C)[C@H]12.[Cl-]			
1.56 µg/mL	0.39 µg/mL	0.25	0.05 µg/mL	0.1 µg/mL	3.13 µg/mL	12.5 µg/mL	C[C@@H](O)[C@H]1C(=O)N2C(C(=O)O)=C(S[C@@H]3CN[C@H](Cc4c[n+](CCO)cn4C)C3)[C@H](C)[C@H]12.[Cl-]			
				0.1 µg/mL	6.25 µg/mL		C[C@@H](O)[C@H]1C(=O)N2C(C(=O)O)=C(S[C@@H]3CN[C@H](Cc4cc(CO)[n+](C)n4C)C3)[C@H](C)[C@H]12.[Cl-]			
0.78 µg/mL	0.39 µg/mL	0.32	0.05 µg/mL	0.1 µg/mL	3.13 µg/mL	25 µg/mL	C[C@@H](O)[C@H]1C(=O)N2C(C(=O)O)=C(S[C@@H]3CN[C@H](Cc4c[n+](C)nn4C)C3)[C@H](C)[C@H]12.[Cl-]			
0.78 µg/mL	0.2 µg/mL	0.31	0.05 µg/mL	0.1 µg/mL	3.13 µg/mL	12.5 µg/mL	C[C@@H](O)[C@H]1C(=O)N2C(C(=O)O)=C(S[C@@H]3CN[C@H](Cc4c[n+](CC(N)=O)cn4C)C3)[C@H](C)[C@H]12.[Cl-]			
		0.3		0.1 µg/mL	1.56 µg/mL		C[C@@H](O)[C@H]1C(=O)N2C(C(=O)O)=C(S[C@@H]3CN[C@H](Cc4c[n+](C)c(C(N)=O)n4C)C3)[C@H](C)[C@H]12.[Cl-]			
0.78 µg/mL	0.39 µg/mL	0.17	0.1 µg/mL	0.1 µg/mL	3.13 µg/mL	25 µg/mL	C[C@@H](O)[C@H]1C(=O)N2C(C(=O)O)=C(S[C@@H]3CN[C@H](Cc4c[n+](CCO)nn4C)C3)[C@H](C)[C@H]12.[Cl-]			
0.78 µg/mL	0.39 µg/mL	0.14	0.1 µg/mL	0.1 µg/mL	6.25 µg/mL	12.5 µg/mL	C[C@@H](O)[C@H]1C(=O)N2C(C(=O)O)=C(S[C@@H]3CN[C@H](Cc4cn(C)[n+](CC(=O)O)c4)C3)[C@H](C)[C@H]12.[Cl-]			
		0.61		0.05 µg/mL	3.13 µg/mL		C[C@@H](O)[C@H]1C(=O)N2C(C(=O)O)=C(S[C@@H]3CN[C@H](Cc4cc[n+](CC(=O)O)n4C)C3)[C@H](C)[C@H]12.[Cl-]			
